Results on four molecules are retold here after BindingDB's records for doi:10.1016/s0960-894x(99)00213-9 (Cardiff University, 1999).

Experiment [1] has as its target Dihydrofolate reductase (Trypanosoma cruzi). Put plainly: Inhibitory activity against Trypanosoma cruzi dihydrofolate reductase.
Experiment [2] shares this target. The experiment is described as above. This is another data set of the same source.

Each structure is given as a SMILES string.

With `CCOC(=O)CCCCCN(Cc1cnc2nc(N)nc(N)c2n1)c1ccc(C(=O)NC(CCC(=O)OCC)C(=O)OCC)cc1` (centres undefined) [2-{4-[(2,4-Diamino-pteridin-6-ylmethyl)-(5-ethoxycarbonyl-pentyl)-amino]-benzoylamino}-pentanedioic acid diethyl ester], in experiment [1], affinity was put at a Ki of 56 nM.

`Nc1nc(N)c2nc(CN(CCCCC(=O)O)c3ccc(C(=O)NC(CCC(=O)O)C(=O)O)cc3)cnc2n1` (centres undefined) [2-{4-[(4-Carboxy-butyl)-(2,4-diamino-pteridin-6-ylmethyl)-amino]-benzoylamino}-pentanedioic acid] gave a Ki in experiment [1] of 0.131 nM.

Turning to `Nc1nc(N)c2nc(CN(CCCCCC(=O)O)c3ccc(C(=O)NC(CCC(=O)O)C(=O)O)cc3)cnc2n1` (centres undefined) [2-{4-[(5-Carboxy-pentyl)-(2,4-diamino-pteridin-6-ylmethyl)-amino]-benzoylamino}-pentanedioic acid], the Ki in experiment [2] is 0.183 nM.

`CCOC(=O)CCCCN(Cc1cnc2nc(N)nc(N)c2n1)c1ccc(C(=O)NC(CCC(=O)OCC)C(=O)OCC)cc1` (centres undefined) [2-{4-[(2,4-Diamino-pteridin-6-ylmethyl)-(4-ethoxycarbonyl-butyl)-amino]-benzoylamino}-pentanedioic acid diethyl ester] registered a Ki in experiment [1] of 46 nM.

Broadly, the Ki is a dissociation constant, usually derived from enzyme kinetics or from competition with a known ligand. A lower Ki goes with a stronger hold on the target.
